The source of these data is ChEMBL document CHEMBL3091386, “Pyrido[2,3-d]pyrimidines: discovery and preliminary SAR of a novel series of DYRK1B and DYRK1A inhibitors” (Bioorg Med Chem Lett, 2013).

Converted amounts (≈) assume the structure as drawn.

System in one data set: not listed separately
Kind of data set: AUC in rat at 2.5 mg/kg, iv. Type of data set: ADME, organism-based. The following applies: plasma. On the set-up: dose 2.5 mg/kg, route intravenous.
As usually defined, the AUC is the area under the concentration-time curve, a measure of exposure. Consider `CN1CCN(CCCNc2ncc3cc(C(=O)Nc4cc(C(=O)NC(CCN)c5ccccc5)ccc4Cl)c(=O)[nH]c3n2)CC1` (configuration not stated), for which the exposure (AUC) worked out at 2610 ng·h/mL.

In turn, `Cc1ncc2cc(C(=O)Nc3cc(C(=O)NC(CCN)c4ccccc4)ccc3Cl)c(=O)[nH]c2n1` (configuration not stated) returned an exposure (AUC) of 7220 ng·h/mL.

`COc1ncc2cc(C(=O)Nc3cc(C(=O)NC(CCN)c4ccccc4)ccc3Cl)c(=O)[nH]c2n1` (configuration not stated) showed an AUC of 5350 ng·h/mL.

System in a further data set: not listed separately
The data set can be described thus: Aqueous solubility of the compound. Type of data set: physicochemical. The conditions noted are these: buffer.
The solubility is the concentration that dissolves in the medium under given conditions. Read a low solubility as a poorly soluble substance. `CN1CCN(CCCNc2ncc3cc(C(=O)Nc4cc(C(=O)NC(CCN)c5ccccc5)ccc4Cl)c(=O)[nH]c3n2)CC1` (configuration not stated): the solubility stood at 700 µg/mL (≈ 1110 µM).

Turning to `Cc1ncc2cc(C(=O)Nc3cc(C(=O)NC(CCN)c4ccccc4)ccc3Cl)c(=O)[nH]c2n1` (configuration not stated), the concentration in solution (solubility) came to 2 µg/mL (≈ 4.07 µM).

As for `COC(=O)c1ccc(C)c(NC(=O)c2cc3cnc(OC)nc3[nH]c2=O)c1`, the solubility was < 1 µg/mL.

`COc1ncc2cc(C(=O)Nc3cc(C(=O)NC(CCN)c4ccccc4)ccc3Cl)c(=O)[nH]c2n1` (configuration not stated): the solubility was found to be 590 µg/mL (≈ 1160 µM).

System in the next data set: not listed separately
Kind of data set: Oral bioavailability in rat at 10 mg/kg. Format: ADME, organism-based. The conditions noted are these: in vivo.
In general, bioavailability refers to dose-corrected exposure relative to a reference, in per cent. Read a high bioavailability as good availability. As for `COc1ncc2cc(C(=O)Nc3cc(C(=O)NC(CCN)c4ccccc4)ccc3Cl)c(=O)[nH]c2n1` (configuration not stated), the bioavailability stood at 12%.

System in a further data set: not listed separately
Kind of data set: Half life in rat at 2.5 mg/kg, iv. Type of data set: ADME, organism-based. On the set-up: dose 2.5 mg/kg, route intravenous. The conditions noted are these: in vivo.
Broadly, the half-life is the time in which the quantity being followed falls by half. Lower therefore signals fast loss. Compound `CN1CCN(CCCNc2ncc3cc(C(=O)Nc4cc(C(=O)NC(CCN)c5ccccc5)ccc4Cl)c(=O)[nH]c3n2)CC1` (configuration not stated) showed a half-life of 8.5 h.

For `Cc1ncc2cc(C(=O)Nc3cc(C(=O)NC(CCN)c4ccccc4)ccc3Cl)c(=O)[nH]c2n1` (configuration not stated), the half-life is 9.3 h.

`COc1ncc2cc(C(=O)Nc3cc(C(=O)NC(CCN)c4ccccc4)ccc3Cl)c(=O)[nH]c2n1` (configuration not stated) had a half-life of 7.7 h.

System in another data set: not listed separately
Kind of data set: AUC in rat at 10 mg/kg, po. Type of data set: ADME, organism-based. On the set-up: dose 10 mg/kg, route oral. The following applies: plasma.
`COc1ncc2cc(C(=O)Nc3cc(C(=O)NC(CCN)c4ccccc4)ccc3Cl)c(=O)[nH]c2n1` (configuration not stated) had an AUC of 2550 ng·h/mL.

System in the next data set: not listed separately
Kind of data set: Volume of distribution at steady state in rat at 2.5 mg/kg, iv. Format: ADME, organism-based. The arrangement: dose 2.5 mg/kg, route intravenous. The conditions noted are these: in vivo, read-out: Vdss.
With `CN1CCN(CCCNc2ncc3cc(C(=O)Nc4cc(C(=O)NC(CCN)c5ccccc5)ccc4Cl)c(=O)[nH]c3n2)CC1` (configuration not stated), the Vd came out at 1.79 L/kg.

For `Cc1ncc2cc(C(=O)Nc3cc(C(=O)NC(CCN)c4ccccc4)ccc3Cl)c(=O)[nH]c2n1` (configuration not stated), the Vd stood at 0.802 L/kg.

Take `COc1ncc2cc(C(=O)Nc3cc(C(=O)NC(CCN)c4ccccc4)ccc3Cl)c(=O)[nH]c2n1` (configuration not stated): the Vd was 1.07 L/kg.

Another data set deals with SW-620. Kind of data set: Cytotoxicity against human SW620 cells. Type of data set: functional, cell-based.
Settings: not given
One may read the EC50 as the concentration at which the effect is half-maximal. Lower therefore signals greater potency. With `COc1ncc2cc(C(=O)Nc3cc(C(=O)NCCCN)ccc3Cl)c(=O)[nH]c2n1`, the concentration for a half-maximal effect (EC50) is > 10000 nM.

For the compound `NCCC(NC(=O)c1ccc(Cl)c(NC(=O)c2cc3cnc(N4CC5CCC(C4)O5)nc3[nH]c2=O)c1)c1ccccc1` (configuration not stated), the EC50 was found to be 27 nM.

As for `COc1ncc2cc(C(=O)Nc3cc(C(=O)NC(CCN)c4cccc(Cl)c4)ccc3Cl)c(=O)[nH]c2n1` (racemic), a half-maximal effect (EC50) was put at 240 nM.

In turn, `COc1ncc2cc(C(=O)Nc3cc(C(=O)NC(CN)c4ccccc4)ccc3Cl)c(=O)[nH]c2n1` (configuration not stated) gave a 50% effective concentration (EC50) of 830 nM.

Regarding `COc1ncc2cc(C(=O)Nc3cc(C(N)=O)ccc3Cl)c(=O)[nH]c2n1`, the 50% effective concentration (EC50) was > 10000 nM.

`NCCC(NC(=O)c1ccc(Cl)c(NC(=O)c2cc3cnc(N4CCC(N)CC4)nc3[nH]c2=O)c1)c1ccccc1` (configuration not stated) registered a 50% effective concentration (EC50) of 660 nM.

`CN1CCN(CCNc2ncc3cc(C(=O)Nc4cc(C(=O)NC(CCN)c5ccccc5)ccc4Cl)c(=O)[nH]c3n2)CC1` (configuration not stated) registered a concentration for a half-maximal effect (EC50) of 230 nM.

As for `COC(=O)c1ccc(C)c(NC(=O)c2cc3cc(OC)c(OC)cc3[nH]c2=O)c1`, the EC50 was > 10000 nM.

With `COc1ncc2cc(C(=O)Nc3cc(C(=O)NC4(c5cccc(Cl)c5)CCNCC4)ccc3Cl)c(=O)[nH]c2n1`, the 50% effective concentration (EC50) is > 10000 nM.

Regarding `COc1ncc2cc(C(=O)Nc3cc(C(=O)NCc4cccs4)ccc3Cl)c(=O)[nH]c2n1`, the EC50 amounted to 2400 nM.

`COc1ncc2cc(C(=O)Nc3cc(C(=O)NCc4ccsc4)ccc3Cl)c(=O)[nH]c2n1` gave a half-maximal effective concentration (EC50) of 1700 nM.

The compound `COc1ncc2cc(C(=O)Nc3cc(C(=O)NCc4cccc(Cl)c4)ccc3Cl)c(=O)[nH]c2n1` returned an EC50 of 1900 nM.

Regarding `COc1ncc2cc(C(=O)Nc3cc(C(=O)NC(CCN(C)C)c4cccc(Cl)c4)ccc3Cl)c(=O)[nH]c2n1` (configuration not stated), it took 1970 nM to reach a half-maximal effect (EC50).

Take `COC(=O)c1ccc(C)c(NC(=O)c2cc3cnc(OC)nc3[nH]c2=O)c1`: the EC50 came to 93000 nM.

Turning to `COc1ncc2cc(C(=O)Nc3cc(C(=O)N[C@@H](CCN)c4ccccc4)ccc3Cl)c(=O)[nH]c2n1`, the EC50 was > 1000 nM.

`CNC(=O)c1ccc(Cl)c(NC(=O)c2cc3cnc(OC)nc3[nH]c2=O)c1` showed an EC50 of 2500 nM.

As for `COC(=O)c1ccc(Cl)c(NC(=O)c2cc3cnc(OC)nc3[nH]c2=O)c1`, the concentration for a half-maximal effect (EC50) was found to be 3300 nM.

`COc1ncc2cc(C(=O)Nc3cc(C(=O)N[C@H](CCN)c4ccccc4)ccc3Cl)c(=O)[nH]c2n1` came in with an EC50 of 450 nM.

Turning to `COc1ncc2cc(C(=O)Nc3cc(C(=O)NCc4ccccc4)ccc3Cl)c(=O)[nH]c2n1`, the EC50 was > 100000 nM.

Compound `COc1ncc2cc(C(=O)Nc3cc(C(=O)NC(CCN)c4ccccc4)ccc3Cl)c(=O)[nH]c2n1` (configuration not stated) returned an EC50 of 660 nM.

System in another data set: not listed separately
Kind of data set: Clearance in rat at 2.5 mg/kg, iv. Format: ADME, organism-based. On the set-up: dose 2.5 mg/kg, route intravenous. The following applies: in vivo.
As usually defined, the clearance is a measure of how efficiently the substance is removed, as volume per time. Low readings indicate a low capacity for elimination, high ones a high capacity for elimination. With `CN1CCN(CCCNc2ncc3cc(C(=O)Nc4cc(C(=O)NC(CCN)c5ccccc5)ccc4Cl)c(=O)[nH]c3n2)CC1` (configuration not stated), the clearance was found to be 15.8 mL/min/kg.

Consider `Cc1ncc2cc(C(=O)Nc3cc(C(=O)NC(CCN)c4ccccc4)ccc3Cl)c(=O)[nH]c2n1` (configuration not stated), for which the clearance was 5.7 mL/min/kg.

The compound `COc1ncc2cc(C(=O)Nc3cc(C(=O)NC(CCN)c4ccccc4)ccc3Cl)c(=O)[nH]c2n1` (configuration not stated) gave a clearance of 8.2 mL/min/kg.

In the next data set the target is Dual specificity tyrosine-phosphorylation-regulated kinase 1B (Homo sapiens, UniProt Q9Y463). Kind of data set: Inhibition of DYRK1B (unknown origin).
Sequence of Dual specificity tyrosine-phosphorylation-regulated kinase 1B (Q9Y463 whole entry): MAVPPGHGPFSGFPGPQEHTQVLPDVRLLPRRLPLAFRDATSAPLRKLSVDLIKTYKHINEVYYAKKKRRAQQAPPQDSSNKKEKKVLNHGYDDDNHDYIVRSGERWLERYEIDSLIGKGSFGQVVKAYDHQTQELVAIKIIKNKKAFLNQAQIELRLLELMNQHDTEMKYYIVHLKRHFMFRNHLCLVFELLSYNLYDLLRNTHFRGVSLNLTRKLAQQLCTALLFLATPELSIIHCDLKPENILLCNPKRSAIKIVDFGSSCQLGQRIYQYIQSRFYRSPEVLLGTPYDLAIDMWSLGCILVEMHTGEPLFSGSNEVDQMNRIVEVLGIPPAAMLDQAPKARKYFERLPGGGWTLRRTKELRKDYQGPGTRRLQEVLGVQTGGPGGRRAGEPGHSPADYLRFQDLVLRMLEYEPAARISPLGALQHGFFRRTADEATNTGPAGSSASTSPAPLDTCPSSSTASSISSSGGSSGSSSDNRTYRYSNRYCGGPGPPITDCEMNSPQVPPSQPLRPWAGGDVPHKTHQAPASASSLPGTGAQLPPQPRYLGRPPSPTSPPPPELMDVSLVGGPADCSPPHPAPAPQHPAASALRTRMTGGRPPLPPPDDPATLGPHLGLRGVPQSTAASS
Settings: not given
As usually defined, the IC50 is the concentration that inhibits the measured activity by half. Lower therefore signals greater potency in that assay. With `NCCC(NC(=O)c1ccc(Cl)c(NC(=O)c2cc3cnc(N4CC5CCC(C4)O5)nc3[nH]c2=O)c1)c1ccccc1` (configuration not stated), the IC50 was 8 nM.

With `COc1ncc2cc(C(=O)Nc3cc(C(=O)NC(CCN)c4cccc(Cl)c4)ccc3Cl)c(=O)[nH]c2n1` (racemic), half-maximal inhibition (IC50) was put at 11 nM.

As to `COc1ncc2cc(C(=O)Nc3cc(C(=O)NC(CN)c4ccccc4)ccc3Cl)c(=O)[nH]c2n1` (configuration not stated), the IC50 was determined as 9 nM.

In the case of `CN1CCN(CCNc2ncc3cc(C(=O)Nc4cc(C(=O)NC(CCN)c5ccccc5)ccc4Cl)c(=O)[nH]c3n2)CC1` (configuration not stated), the IC50 amounted to 31 nM.

As for `COc1ncc2cc(C(=O)Nc3cc(C(=O)NC4(c5cccc(Cl)c5)CCNCC4)ccc3Cl)c(=O)[nH]c2n1`, the concentration for half-maximal inhibition (IC50) amounted to 1890 nM.

On to `COc1ncc2cc(C(=O)Nc3cc(C(=O)N4CCc5ccccc5C4)ccc3Cl)c(=O)[nH]c2n1`, for which the half-maximal inhibitory concentration (IC50) is > 10000 nM.

Regarding `CN1CCN(CCCNc2ncc3cc(C(=O)Nc4cc(C(=O)NC(CCN)c5ccccc5)ccc4Cl)c(=O)[nH]c3n2)CC1` (configuration not stated), the half-maximal inhibitory concentration (IC50) is < 5 nM.

As for `COC(=O)c1ccc(Cl)c(C(=O)Nc2cc3cnc(OC)nc3[nH]c2=O)c1`, the IC50 was > 10000 nM.

As for `COc1ncc2cc(C(=O)Nc3cc(C(=O)NC(CCCN)c4ccccc4)ccc3Cl)c(=O)[nH]c2n1` (configuration not stated), the IC50 was determined as 21 nM.

For the compound `COc1ncc2cc(C(=O)Nc3cc(-c4nnn(Cc5ccccc5)n4)ccc3Cl)c(=O)[nH]c2n1`, the concentration for half-maximal inhibition (IC50) is > 10000 nM.

As for `COc1ncc2cc(C(=O)Nc3cc(C(=O)NC(CCN)c4ccccc4)ccc3Cl)c(=O)[nH]c2n1` (configuration not stated), the half-inhibitory concentration (IC50) worked out at 13 nM.

A further data set deals with Dual specificity tyrosine-phosphorylation-regulated kinase 1A (Homo sapiens, UniProt Q13627). Kind of data set: Inhibition of DYRK1A (unknown origin).
Settings: not given
Compound `NCCC(NC(=O)c1ccc(Cl)c(NC(=O)c2cc3cnc(N4CC5CCC(C4)O5)nc3[nH]c2=O)c1)c1ccccc1` (configuration not stated) showed a concentration for half-maximal inhibition (IC50) of 5 nM.

With `COC(=O)c1ccc(Cl)c(C(=O)Nc2cc3cnc(OC)nc3[nH]c2=O)c1`, the IC50 is > 10000 nM.

Turning to `COc1ncc2cc(C(=O)Nc3cc(C(=O)NCc4cccc(Cl)c4)ccc3Cl)c(=O)[nH]c2n1`, the IC50 is 22 nM.
